Test results: patent publication US20230075365A1, “HERBICIDE COMBINATIONS COMPRISING GLUFOSINATE AND SELECTED PPO INHIBITORS” (BASF SE, priority 2020, published 2023)

Legend:
Waterhemp = assay: Greenhouse post emergence treatment, visual herbicidal activity against Waterhemp; format: in vivo, Amaranthus tuberculatus; settings: scale from 0 to 100
Text: (§1) Synergism can be described as an interaction where the combined effect of two or more compounds is greater than the sum of the individual effects of each of the compounds. The presence of a synergistic effect in terms of percent control, between two mixing partners (X and Y) can be calculated using the Colby equation (Colby, S. R., 1967, Calculating Synergistic and Antagonistic Responses in Herbicide Combinations, Weeds, 15, 21-22):
(§2) When the observed combined control effect is greater than the expected (calculated) combined control effect (E), then the combined effect is synergistic.
Pots with 0.3 L of volume were filled with soil (SunGro Horticulture, Agawam, Mass. 01001) to grow one plant per pot in the greenhouse until the desired developmental stage. Environmental conditions inside the greenhouse were set up for 25° C., 75% relative humidity, and 12 h light day-1 with natural sunlight or 500 μmol m-1 s-1 PAR (photosynthetically active radiation) for cloudy days. Glufosinate applications were always performed in full sunlight to achieve maximum activity. The test period extended to 2 to 21 days after treatment. During this time, the plants were tended, and their response to the individual treatments was evaluated. The evaluation was carried out by visual control using a scale from 0 to 100. […]

Kochia = assay: Greenhouse post emergence treatment, visual herbicidal activity against Kochia; format: in vivo, Bassia scoparia; settings: scale from 0 to 100
Text: as §1, §2
Pots with 0.3 L of volume were filled with soil (SunGro Horticulture, Agawam, Mass. 01001) to grow one plant per pot in the greenhouse until the desired developmental stage. Environmental conditions inside the greenhouse were set up for 25° C., 75% relative humidity, and 12 h light day-1 with natural sunlight or 500 μmol m-1 s-1 PAR (photosynthetically active radiation) for cloudy days. Glufosinate applications were always performed in full sunlight to achieve maximum activity. The test period extended to 2 to 21 days after treatment. During this time, the plants were tended, and their response to the individual treatments was evaluated. The evaluation was carried out by visual control using a scale from 0 to 100. 100 means no emergence of the plants or complete destruction of at least the above-ground parts, and 0 means no damage, or normal course of growth. Data shown are the mean of three replications.

Velvetleaf = assay: Greenhouse post emergence treatment (Acifluorfen test method), herbicidal activity against Velvetleaf; format: in vivo, Abutilon theophrasti
Experimental: Pots with 0.8 L of volume were filled with soil (Sungro Horticulture, Agawam, Mass. 01001) to grow one plant per pot in the greenhouse until the desired developmental stage. Environmental conditions inside the greenhouse were set up for 30° C., 50% relative humidity, and 12 hr light day-1 with natural sunlight or 760 umol m-1 s-1 PAR (Photosynthetically active radiation) for cloudy days. Glufosinate applications were always performed in full sunlight to achieve maximum activity Pots with test plants grown to 3.5 to 4.5 inch (8.9 to 11.4 cm) tall were treated with the herbicidal compositions, which were obtained by diluting commercially available formulations with deionized water to desired concentration, and then sprayed using finely distributing nozzles on to the plants. The test period extended over 21 days after treatment (DAT). During this time, the plants were tended and their response to the individual treatments was evaluated.
The evaluation was done by calculating using the following Colby equation, wherein X was the effect in percent using acifluorfen at an application rate a, Y was the effect in percent using glufosinate at application rate b, and E was the expected effect (in %) of acifluorfen plus glufosinate at application rates a+b.
The value E corresponds to the effect (plant damage or injury) which is to be expected if the activity of the individual compounds is just additive. If the observed effect is higher than the value E calculated according to Colby, a synergistic effect is present.
The evaluation for the damage caused by the chemical compositions was carried out using a scale from 0 to 100%, compared to the untreated control plants. Here, 0 means no damage and 100 means complete destruction of the plants.
Adjuvants of ammonium sulfate (as AMS Liquid) and non-ionic surfactant (NIS, here as Induce) at rates of 1680 g/ha and 0.25% (v/v), respectively, were added in all treatments with Acifluorfen.

CP(=O)(O)CCC(N)C(=O)O (racemic) [Glufosinate, (2RS)-2-amino-4-[hydroxy(methyl)phosphinoyl]butyric acid]
Herbicidal activity against Waterhemp (1 DAT), Found (Waterhemp; Glufosinate 280 g ai/ha solo): 18
Herbicidal activity against Kochia (21 DAT), Found (Kochia; Glufosinate 420 g ai/ha solo): 25
Herbicidal activity against Velvetleaf, solo application, % activity (Velvetleaf; Glufosinate 123 g ai/ha solo, 7 DAT): 49%
Herbicidal activity against Velvetleaf, solo application, % activity (Velvetleaf; Glufosinate 123 g ai/ha solo, 14 DAT): 56%
Herbicidal activity against Velvetleaf, solo application, % activity (Velvetleaf; Glufosinate 123 g ai/ha solo, 21 DAT): 45%

O=C(O)c1cc(Oc2ccc(C(F)(F)F)cc2Cl)ccc1[N+](=O)[O-] [Acifluorfen]
Herbicidal activity against Velvetleaf, solo application, % activity (Velvetleaf; Acifluorfen 7.176 g ai/ha solo, 7 DAT): 38%
Herbicidal activity against Velvetleaf, solo application, % activity (Velvetleaf; Acifluorfen 7.176 g ai/ha solo, 14 DAT): 40%
Herbicidal activity against Velvetleaf, solo application, % activity (Velvetleaf; Acifluorfen 7.176 g ai/ha solo, 21 DAT): 33%

CS(=O)(=O)NC(=O)c1cc(Oc2ccc(C(F)(F)F)cc2Cl)ccc1[N+](=O)[O-] [Fomesafen]
Herbicidal activity against Kochia (21 DAT), Found (Kochia; Fomesafen 7.1 g ai/ha solo): 25

CCOC(=O)C(C)OC(=O)c1cc(Oc2ccc(C(F)(F)F)cc2Cl)ccc1[N+](=O)[O-] (centres unmarked) [Lactofen]
Herbicidal activity against Waterhemp (1 DAT), Found (Waterhemp; Lactofen 5 g ai/ha solo): 3
Herbicidal activity against Kochia (21 DAT), Found (Kochia; Lactofen 5.2 g ai/ha solo): 25
